Experimental findings from patent US10219516B2, “Molecules having pesticidal utility, and intermediates, compositions, and processes, related thereto” (priority 2015, dated 2019) are described below.

Holding throughout (type): in vivo
Experiment [1] concerns Yellow Fever Mosquito (Aedes aegypti, AEDSAE). Kind of experiment: Bioassay on Yellow Fever Mosquito (YFM), 96-well plate larval assay. The following applies: for YFM (Biological Results, rating): Species YFM (Yellow Fever Mosquito); for YFM rating: Yellow Fever Mosquito, 96-well plate larval assay. An outline of the steps: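 Each well was scored for mortality after 3 days at room temperature under a non-evaporative lid. Test molecules came from DMSO masters (4000 ppm stock) diluted with water/acetone 90:10 and dispensed into six replicate plates, which were then infested with roughly 1-day-old larvae in liver-powder water.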

Experiment [2] has as its system Cabbage Looper (Trichoplusia ni, TRIPNI). Kind of experiment: Bioassay on Cabbage Looper (CL), 128-well diet tray assay. The following applies: Trichoplusia ni. Summed up: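 Diet-incorporation-free surface assay: 50 μg/cm^2 compound in acetone-water (90:10), dried on diet; 1–5 2nd-instar larvae/well; 8 wells; vented cover; 25° C., 14:10 L:D, 5–7 d; % mortality averaged over wells.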

Experiment [3] concerns Beet Armyworm (Spodoptera exigua, LAPHEG). Kind of experiment: Bioassay on Beet Armyworm (BAW), 128-well diet tray assay. An outline of the steps:
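Diet in each of eight wells received 50 μg/cm^2 of test molecule (90:10 acetone-water, dried), then one to five second-instar larvae were added. Mortality (%) was scored after five to seven days at 25° C. under 14:10 light-dark and averaged across the wells.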

Setting [4] is: Species CL (Cabbage Looper), read-out: CL (Biological Results, rating).
[5] abbreviates: Species BAW (Beet Armyworm), read-out: BAW (Biological Results, rating).
Where [6] appears, read: Cabbage Looper, 128-well diet tray assay, read-out: CL rating.
Setting [7] is: Beet Armyworm, 128-well diet tray assay, read-out: BAW rating.

Each structure is given as a SMILES string. Like-named read-outs stand apart in the source and are kept apart here.

On to `Nc1cncc(NC(=O)c2cc(NC(=O)[C@H]3[C@H](c4cc(Cl)cc(Cl)c4)C3(Cl)Cl)ccc2Cl)c1` [F362, N-(5-aminopyridin-3-yl)-2-chloro-5-((1R,3R)-2,2-dichloro-3-(3,5-dichlorophenyl)cyclopropane-1-carboxamido)benzamide], for which the “YFM (Biological Results, rating)” value in experiment [1] was “A (80-100)”. The pest or weed control at 50 µg/cm2 in experiment [2] (setting [4]) and in experiment [3] (setting [5]) was 50 to 100% each time.

Take `Nc1cncc(NC(=O)c2cc(NC(=O)[C@H]3[C@H](c4ccc(Cl)c(Cl)c4)C3(Cl)Cl)ccc2Cl)c1` [F363, N-(5-Aminopyridin-3-yl)-2-chloro-5-((1R,3R)-2,2-dichloro-3-(3,4-dichlorophenyl)cyclopropane-1-carboxamido)benzamide]: the “YFM (Biological Results, rating)” value in experiment [1] is “A (80-100)”. For the same compound, the pest or weed control at 50 µg/cm2 in experiment [2] (setting [4]) and in experiment [3] (setting [5]) was 50 to 100% throughout.

As to `O=C(Nc1ccnc(Cl)c1)c1cc(NC(=O)[C@H]2[C@H](c3cc(Cl)cc(Cl)c3)C2(Cl)Cl)ccc1Cl` [F368, 2-Chloro-N-(2-chloropyridin-4-yl)-5-((1R,3R)-2,2-dichloro-3-(3,5-dichlorophenyl)cyclopropane-1-carboxamido)benzamide], the “YFM (Biological Results, rating)” value in experiment [1] was “A (80-100)”. Moreover, the pest or weed control at 50 µg/cm2 in experiment [2] (setting [4]) and in experiment [3] (setting [5]) was 50 to 100% each time.

Regarding `O=C(Nc1ccnc(Cl)c1)c1cc(NC(=O)[C@H]2[C@H](c3ccc(Cl)c(Cl)c3)C2(Cl)Cl)ccc1Cl` [F369, 2-Chloro-N-(2-chloropyridin-4-yl)-5-((1R,3R)-2,2-dichloro-3-(3,4-dichlorophenyl)cyclopropane-1-carboxamido)benzamide], the “YFM (Biological Results, rating)” value in experiment [1] was “A (80-100)”. In addition, the pest or weed control at 50 µg/cm2 in experiment [2] (setting [4]) and in experiment [3] (setting [5]) was 50 to 100% throughout.

`Nc1c(F)cnc(NC(=O)c2cc(NC(=O)[C@H]3[C@H](c4cc(Cl)cc(Cl)c4)C3(Cl)Cl)ccc2Cl)c1F` [F370, N-(4-Amino-3,5-difluoropyridin-2-yl)-2-chloro-5-((1R,3R)-2,2-dichloro-3-(3,5-dichlorophenyl)cyclopropane-1-carboxamido)benzamide]: in experiment [1], the “YFM (Biological Results, rating)” value is given as “A (80-100)”. The pest or weed control at 50 µg/cm2 in experiment [2] (setting [4]) and in experiment [3] (setting [5]) was 50 to 100% throughout.

Take `Nc1c(F)cnc(NC(=O)c2cc(NC(=O)[C@H]3[C@H](c4ccc(Cl)c(Cl)c4)C3(Cl)Cl)ccc2Cl)c1F` [F371, N-(4-Amino-3,5-difluoropyridin-2-yl)-2-chloro-5-((1R,3R)-2,2-dichloro-3-(3,4-dichlorophenyl)cyclopropane-1-carboxamido)benzamide]: the “YFM (Biological Results, rating)” value in experiment [1] is reported as “A (80-100)”. Moreover, the pest or weed control at 50 µg/cm2 in experiment [2] (setting [4]) and in experiment [3] (setting [5]) was 50 to 100% each time.

As to `Nc1c(F)cnc(NC(=O)c2cc(NC(=O)[C@H]3[C@H](c4cc(Cl)c(Cl)c(Cl)c4)C3(Cl)Cl)ccc2Cl)c1F` [F372, N-(4-Amino-3,5-difluoropyridin-2-yl)-2-chloro-5-((1R,3R)-2,2-dichloro-3-(3,4,5-trichlorophenyl)cyclopropane-1-carboxamido)benzamide], the “YFM (Biological Results, rating)” value in experiment [1] is “A (80-100)”. In addition, the pest or weed control at 50 µg/cm2 in experiment [2] (setting [4]) and in experiment [3] (setting [5]) was 50 to 100% in each case.

Consider `Nc1ccc(F)cc1NC(=O)c1cc(NC(=O)[C@H]2[C@H](c3cc(Cl)cc(Cl)c3)C2(Cl)Cl)ccc1Cl` [F373, N-(2-Amino-5-fluorophenyl)-2-chloro-5-((1R,3R)-2,2-dichloro-3-(3,5-dichlorophenyl)cyclopropane-1-carboxamido)benzamide], for which the YFM rating result in experiment [1] is “A (80-100)”. The pest or weed control at 50 µg/cm2 in experiment [2] (setting [6]) and in experiment [3] (setting [7]) was 50 to 100% throughout.

As to `Nc1c(F)cc(F)cc1NC(=O)c1cc(NC(=O)[C@H]2[C@H](c3ccc(Cl)c(Cl)c3)C2(Cl)Cl)ccc1Cl` [F377, N-(2-Amino-3,5-difluorophenyl)-2-chloro-5-((1R,3R)-2,2-dichloro-3-(3,4-dichlorophenyl)cyclopropane-1-carboxamido)benzamide], the YFM rating result in experiment [1] is on record as “A (80-100)”. For the same compound, the pest or weed control at 50 µg/cm2 in experiment [2] (setting [6]) and in experiment [3] (setting [7]) was 50 to 100% in each case.

As to `Nc1c(F)cc(NC(=O)c2cc(NC(=O)[C@H]3[C@H](c4cc(Cl)cc(Cl)c4)C3(Cl)Cl)ccc2Cl)cc1F` [F378, N-(4-Amino-3,5-difluorophenyl)-2-chloro-5-((1R,3R)-2,2-dichloro-3-(3,5-dichlorophenyl)cyclopropane-1-carboxamido)benzamide], the YFM rating entry in experiment [1] is recorded as “B (More than 0-Less than 80)”. In addition, the pest or weed control at 50 µg/cm2 in experiment [2] (setting [6]) and in experiment [3] (setting [7]) was 50 to 100% each time.

Take `Nc1c(F)cc(NC(=O)c2cc(NC(=O)[C@H]3[C@H](c4ccc(Cl)c(Cl)c4)C3(Cl)Cl)ccc2Cl)cc1F` [F379, N-(4-Amino-3,5-difluorophenyl)-2-chloro-5-((1R,3R)-2,2-dichloro-3-(3,4-dichlorophenyl)cyclopropane-1-carboxamido)benzamide]: in experiment [1], the YFM rating entry is recorded as “A (80-100)”. Besides, the pest or weed control at 50 µg/cm2 in experiment [2] (setting [6]) and in experiment [3] (setting [7]) was 50 to 100% in each case.

As to `Nc1c(F)cc(NC(=O)c2cc(NC(=O)[C@H]3[C@H](c4cc(Cl)c(Cl)c(Cl)c4)C3(Cl)Cl)ccc2Cl)cc1F` [F380, N-(4-Amino-3,5-difluorophenyl)-2-chloro-5-((1R,3R)-2,2-dichloro-3-(3,4,5-trichlorophenyl)cyclopropane-1-carboxamido)benzamide], in experiment [1], the YFM rating result is “A (80-100)”. Also, the pest or weed control at 50 µg/cm2 in experiment [2] (setting [6]) and in experiment [3] (setting [7]) was 50 to 100% each time.

With `Nc1c(F)cc(NC(=O)c2cc(NC(=O)[C@H]3[C@H](c4ccc(F)c(Cl)c4)C3(Cl)Cl)ccc2Cl)cc1F` [F381, N-(4-Amino-3,5-difluorophenyl)-2-chloro-5-((1R,3R)-2,2-dichloro-3-(3-chloro-4-fluorophenyl)cyclopropane-1-carboxamido)benzamide], in experiment [1], the YFM rating entry is recorded as “A (80-100)”. In addition, the pest or weed control at 50 µg/cm2 in experiment [2] (setting [6]) and in experiment [3] (setting [7]) was 50 to 100% each time.

For the compound `Nc1cc(NC(=O)c2cc(NC(=O)[C@H]3[C@H](c4cc(Cl)c(Cl)c(Cl)c4)C3(Cl)Cl)ccc2Cl)c(F)cc1F` [F402, N-(5-Amino-2,4-difluorophenyl)-2-chloro-5-((1R,3R)-2,2-dichloro-3-(3,4,5-trichlorophenyl)cyclopropane-1-carboxamido)benzamide], the YFM rating result in experiment [1] is given as “A (80-100)”. The pest or weed control at 50 µg/cm2 in experiment [2] (setting [6]) and in experiment [3] (setting [7]) was 50 to 100% in each case.

Turning to `Nc1cc(NC(=O)c2cc(NC(=O)[C@H]3[C@H](c4ccc(F)c(Cl)c4)C3(Cl)Cl)ccc2Cl)c(F)cc1F` [F403, N-(5-Amino-2,4-difluorophenyl)-2-chloro-5-((1R,3R)-2,2-dichloro-3-(3-chloro-4-fluorophenyl)cyclopropane-1-carboxamido)benzamide], the YFM rating result in experiment [1] is recorded as “A (80-100)”. Besides, the pest or weed control at 50 µg/cm2 in experiment [2] (setting [6]) and in experiment [3] (setting [7]) was 50 to 100% each time.

In the case of `Nc1c(F)cc(F)cc1NC(=O)c1cc(NC(=O)[C@H]2[C@H](c3cc(Cl)c(Cl)c(Cl)c3)C2(Cl)Cl)ccc1Cl` [F404, N-(2-Amino-3,5-difluorophenyl)-2-chloro-5-((1R,3R)-2,2-dichloro-3-(3,4,5-trichlorophenyl)cyclopropane-1-carboxamido)benzamide], the YFM rating entry in experiment [1] is on record as “A (80-100)”. The pest or weed control at 50 µg/cm2 in experiment [2] (setting [6]) and in experiment [3] (setting [7]) was 50 to 100% each time.

For the compound `Nc1ccc(F)cc1NC(=O)c1cc(NC(=O)[C@H]2[C@H](c3cc(Cl)c(Cl)c(Cl)c3)C2(Cl)Cl)ccc1Cl` [F405, N-(2-Amino-5-fluorophenyl)-2-chloro-5-((1R,3R)-2,2-dichloro-3-(3,4,5-trichlorophenyl)cyclopropane-1-carboxamido)benzamide], the YFM rating result in experiment [1] is “A (80-100)”. The pest or weed control at 50 µg/cm2 in experiment [2] (setting [6]) and in experiment [3] (setting [7]) was 50 to 100% in each case.

Consider `Nc1cc(F)cc(F)c1NC(=O)c1cc(NC(=O)[C@H]2[C@H](c3cc(Cl)cc(Cl)c3)C2(Cl)Cl)ccc1Cl` [F406, N-(2-Amino-4,6-difluorophenyl)-2-chloro-5-((1R,3R)-2,2-dichloro-3-(3,5-dichlorophenyl)cyclopropane-1-carboxamido)benzamide], for which the YFM rating result in experiment [1] is “A (80-100)”. The pest or weed control at 50 µg/cm2 in experiment [2] (setting [6]) and in experiment [3] (setting [7]) was 50 to 100% in each case.

On to `Nc1cc(F)cc(F)c1NC(=O)c1cc(NC(=O)[C@H]2[C@H](c3ccc(Cl)c(Cl)c3)C2(Cl)Cl)ccc1Cl` [F407, N-(2-amino-4,6-difluorophenyl)-2-chloro-5-((1R,3R)-2,2-dichloro-3-(3,4-dichlorophenyl)cyclopropane-1-carboxamido)benzamide], for which, in experiment [1], the YFM rating result is listed as “A (80-100)”. The pest or weed control at 50 µg/cm2 in experiment [2] (setting [6]) and in experiment [3] (setting [7]) was 50 to 100% each time.

`Nc1cc(F)cc(F)c1NC(=O)c1cc(NC(=O)[C@H]2[C@H](c3cc(Cl)c(Cl)c(Cl)c3)C2(Cl)Cl)ccc1Cl` [F408, N-(2-Amino-4,6-difluorophenyl)-2-chloro-5-((1R,3R)-2,2-dichloro-3-(3,4,5-trichlorophenyl)cyclopropane-1-carboxamido)benzamide]: the YFM rating entry in experiment [1] is “A (80-100)”. Further, the pest or weed control at 50 µg/cm2 in experiment [2] (setting [6]) and in experiment [3] (setting [7]) was 50 to 100% each time.
